PMC8550792, “Evolution of kinase polypharmacology across HSP90 drug discovery” (Cell Chemical Biology, 2021)
Where two headings read alike, the source gives them in different places.

Assays:
Test in all cases: biochemical
Assay type in all cases: biochemical
382 unique human kinases [1] = molecular target: T1, 382 unique human kinases (Homo sapiens, UniProt P42685); conditions: FRK/PTK5, [ATP] 30 µM, compound 10 uM; for remaining activity at 10 µM: read-out: % Enzyme Activity (relative to DMSO controls)
T1 construct: purchased Reaction Biology (HotSpot contract assay)

382 unique human kinases [2] = molecular target: T2, 382 unique human kinases (Homo sapiens, UniProt Q86SG6); conditions: NEK8, [ATP] 100 µM, compound 10 uM; for remaining activity at 10 µM: read-out: % Enzyme Activity (relative to DMSO controls)
T2 construct: purchased Reaction Biology (HotSpot contract assay)
T2 sequence (Q86SG6 1-692): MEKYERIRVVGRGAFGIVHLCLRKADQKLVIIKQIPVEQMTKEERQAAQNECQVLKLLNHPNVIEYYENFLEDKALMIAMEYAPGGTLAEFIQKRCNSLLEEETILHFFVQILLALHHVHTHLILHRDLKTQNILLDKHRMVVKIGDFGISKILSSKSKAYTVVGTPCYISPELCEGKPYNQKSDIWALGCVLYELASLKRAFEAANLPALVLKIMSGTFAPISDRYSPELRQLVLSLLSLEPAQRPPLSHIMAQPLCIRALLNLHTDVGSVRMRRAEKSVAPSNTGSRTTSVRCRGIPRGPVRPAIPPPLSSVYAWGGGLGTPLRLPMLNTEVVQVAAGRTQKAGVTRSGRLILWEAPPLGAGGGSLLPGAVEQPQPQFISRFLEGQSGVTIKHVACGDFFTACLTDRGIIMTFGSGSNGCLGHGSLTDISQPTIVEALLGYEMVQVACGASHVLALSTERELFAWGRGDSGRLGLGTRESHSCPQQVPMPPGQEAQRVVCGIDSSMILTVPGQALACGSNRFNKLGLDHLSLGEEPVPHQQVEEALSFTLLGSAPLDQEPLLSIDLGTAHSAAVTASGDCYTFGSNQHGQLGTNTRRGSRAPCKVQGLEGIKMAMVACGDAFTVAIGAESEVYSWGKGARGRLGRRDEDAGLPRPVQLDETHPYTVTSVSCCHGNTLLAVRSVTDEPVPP

382 unique human kinases [3] = molecular target: T3, 382 unique human kinases (Homo sapiens, UniProt O15146); conditions: MUSK, [ATP] 15 µM, compound 10 uM; for remaining activity at 10 µM: read-out: % Enzyme Activity (relative to DMSO controls)
T3 construct: purchased Reaction Biology (HotSpot contract assay)
T3 sequence (O15146 24-869): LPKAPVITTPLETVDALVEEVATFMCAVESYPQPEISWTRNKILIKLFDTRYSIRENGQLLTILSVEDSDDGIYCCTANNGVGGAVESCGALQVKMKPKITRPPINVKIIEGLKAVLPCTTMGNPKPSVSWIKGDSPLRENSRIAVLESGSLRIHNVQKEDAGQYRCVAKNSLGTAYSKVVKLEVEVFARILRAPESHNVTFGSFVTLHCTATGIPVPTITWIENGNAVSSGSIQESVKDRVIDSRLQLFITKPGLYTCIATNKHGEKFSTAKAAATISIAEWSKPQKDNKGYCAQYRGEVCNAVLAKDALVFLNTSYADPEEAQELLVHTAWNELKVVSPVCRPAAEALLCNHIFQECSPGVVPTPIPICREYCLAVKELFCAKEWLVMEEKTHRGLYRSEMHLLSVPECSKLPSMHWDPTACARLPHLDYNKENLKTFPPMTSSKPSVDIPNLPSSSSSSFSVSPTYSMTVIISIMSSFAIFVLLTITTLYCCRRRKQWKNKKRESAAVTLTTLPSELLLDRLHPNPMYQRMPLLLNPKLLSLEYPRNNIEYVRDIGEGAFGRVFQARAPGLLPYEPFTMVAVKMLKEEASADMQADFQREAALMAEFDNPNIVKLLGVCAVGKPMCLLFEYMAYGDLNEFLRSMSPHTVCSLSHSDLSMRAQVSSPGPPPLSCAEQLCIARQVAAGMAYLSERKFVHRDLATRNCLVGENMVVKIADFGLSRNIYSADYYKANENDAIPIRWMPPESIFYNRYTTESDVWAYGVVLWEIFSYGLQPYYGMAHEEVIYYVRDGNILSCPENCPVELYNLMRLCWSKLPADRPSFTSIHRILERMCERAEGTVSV

382 unique human kinases [4] = molecular target: T4, 382 unique human kinases (Homo sapiens, UniProt Q9UIK4); conditions: DAPK2, 10 uM; for remaining activity at 10 µM: read-out: % Enzyme Activity (relative to DMSO controls)
T4 construct: purchased Reaction Biology (HotSpot contract assay)

382 unique human kinases [5] = molecular target: T5, 382 unique human kinases (Homo sapiens, UniProt P10398); conditions: compound at 10 uM, duplicate values
T5 construct: purchased Reaction Biology (HotSpot contract assay)
T5 sequence (P10398 1-606): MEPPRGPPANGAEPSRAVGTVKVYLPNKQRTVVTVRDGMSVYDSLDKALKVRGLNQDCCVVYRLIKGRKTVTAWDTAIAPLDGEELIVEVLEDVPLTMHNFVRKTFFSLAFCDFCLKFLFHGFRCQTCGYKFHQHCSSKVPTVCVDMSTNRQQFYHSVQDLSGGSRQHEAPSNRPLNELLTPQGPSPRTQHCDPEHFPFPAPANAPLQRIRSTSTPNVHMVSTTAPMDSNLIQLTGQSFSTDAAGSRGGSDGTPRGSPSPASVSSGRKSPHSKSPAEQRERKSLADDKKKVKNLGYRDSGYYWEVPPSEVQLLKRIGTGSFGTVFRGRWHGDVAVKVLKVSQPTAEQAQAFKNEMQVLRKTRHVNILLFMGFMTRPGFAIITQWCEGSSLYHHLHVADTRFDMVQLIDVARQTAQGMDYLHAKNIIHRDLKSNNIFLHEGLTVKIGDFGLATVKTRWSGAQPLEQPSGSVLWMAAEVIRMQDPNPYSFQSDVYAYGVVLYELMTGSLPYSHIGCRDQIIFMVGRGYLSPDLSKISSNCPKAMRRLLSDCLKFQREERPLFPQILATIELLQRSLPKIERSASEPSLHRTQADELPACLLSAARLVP

382 unique human kinases [6] = molecular target: T6, 382 unique human kinases (Homo sapiens, UniProt P10721, T670I/V559D); conditions: c-Kit (V559D/T670I), 10 uM; for remaining activity at 10 µM: read-out: % Enzyme Activity (relative to DMSO controls)
T6 construct: purchased Reaction Biology (HotSpot contract assay)

382 unique human kinases [7] = molecular target: T7, 382 unique human kinases (Homo sapiens, UniProt P00533, T790M); conditions: kinase EGFR (T790M), compound 10 uM; for remaining activity at 10 µM: read-out: % Enzyme Activity (relative to DMSO controls)
T7 construct: purchased Reaction Biology (HotSpot contract assay)

382 unique human kinases [8] = molecular target: T8, 382 unique human kinases (Homo sapiens, UniProt P35968); conditions: kinase KDR/VEGFR2, compound 10 uM; for remaining activity at 10 µM: read-out: % Enzyme Activity (relative to DMSO controls)
T8 construct: purchased Reaction Biology (HotSpot contract assay)

382 unique human kinases [9] = molecular target: T9, 382 unique human kinases (Homo sapiens, UniProt Q13627); conditions: DYRK1/DYRK1A, 10 uM; for remaining activity at 10 µM: read-out: % Enzyme Activity (relative to DMSO controls)
T9 construct: purchased Reaction Biology (HotSpot contract assay)

T1 sequence (P42685 whole entry): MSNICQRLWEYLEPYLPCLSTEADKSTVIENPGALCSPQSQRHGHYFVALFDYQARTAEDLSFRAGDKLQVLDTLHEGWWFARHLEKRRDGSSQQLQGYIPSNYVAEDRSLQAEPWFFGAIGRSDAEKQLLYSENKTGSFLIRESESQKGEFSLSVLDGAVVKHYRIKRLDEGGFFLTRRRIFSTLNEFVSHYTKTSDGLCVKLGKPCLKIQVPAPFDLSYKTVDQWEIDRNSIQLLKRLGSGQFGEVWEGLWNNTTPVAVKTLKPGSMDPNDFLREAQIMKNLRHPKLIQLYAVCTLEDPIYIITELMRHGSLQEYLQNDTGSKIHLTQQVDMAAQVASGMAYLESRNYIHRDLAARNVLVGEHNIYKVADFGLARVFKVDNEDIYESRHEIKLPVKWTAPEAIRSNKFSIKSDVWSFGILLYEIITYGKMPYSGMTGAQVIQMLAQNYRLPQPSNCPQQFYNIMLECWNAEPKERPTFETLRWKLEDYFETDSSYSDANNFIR
T8 sequence (P35968 20-1356): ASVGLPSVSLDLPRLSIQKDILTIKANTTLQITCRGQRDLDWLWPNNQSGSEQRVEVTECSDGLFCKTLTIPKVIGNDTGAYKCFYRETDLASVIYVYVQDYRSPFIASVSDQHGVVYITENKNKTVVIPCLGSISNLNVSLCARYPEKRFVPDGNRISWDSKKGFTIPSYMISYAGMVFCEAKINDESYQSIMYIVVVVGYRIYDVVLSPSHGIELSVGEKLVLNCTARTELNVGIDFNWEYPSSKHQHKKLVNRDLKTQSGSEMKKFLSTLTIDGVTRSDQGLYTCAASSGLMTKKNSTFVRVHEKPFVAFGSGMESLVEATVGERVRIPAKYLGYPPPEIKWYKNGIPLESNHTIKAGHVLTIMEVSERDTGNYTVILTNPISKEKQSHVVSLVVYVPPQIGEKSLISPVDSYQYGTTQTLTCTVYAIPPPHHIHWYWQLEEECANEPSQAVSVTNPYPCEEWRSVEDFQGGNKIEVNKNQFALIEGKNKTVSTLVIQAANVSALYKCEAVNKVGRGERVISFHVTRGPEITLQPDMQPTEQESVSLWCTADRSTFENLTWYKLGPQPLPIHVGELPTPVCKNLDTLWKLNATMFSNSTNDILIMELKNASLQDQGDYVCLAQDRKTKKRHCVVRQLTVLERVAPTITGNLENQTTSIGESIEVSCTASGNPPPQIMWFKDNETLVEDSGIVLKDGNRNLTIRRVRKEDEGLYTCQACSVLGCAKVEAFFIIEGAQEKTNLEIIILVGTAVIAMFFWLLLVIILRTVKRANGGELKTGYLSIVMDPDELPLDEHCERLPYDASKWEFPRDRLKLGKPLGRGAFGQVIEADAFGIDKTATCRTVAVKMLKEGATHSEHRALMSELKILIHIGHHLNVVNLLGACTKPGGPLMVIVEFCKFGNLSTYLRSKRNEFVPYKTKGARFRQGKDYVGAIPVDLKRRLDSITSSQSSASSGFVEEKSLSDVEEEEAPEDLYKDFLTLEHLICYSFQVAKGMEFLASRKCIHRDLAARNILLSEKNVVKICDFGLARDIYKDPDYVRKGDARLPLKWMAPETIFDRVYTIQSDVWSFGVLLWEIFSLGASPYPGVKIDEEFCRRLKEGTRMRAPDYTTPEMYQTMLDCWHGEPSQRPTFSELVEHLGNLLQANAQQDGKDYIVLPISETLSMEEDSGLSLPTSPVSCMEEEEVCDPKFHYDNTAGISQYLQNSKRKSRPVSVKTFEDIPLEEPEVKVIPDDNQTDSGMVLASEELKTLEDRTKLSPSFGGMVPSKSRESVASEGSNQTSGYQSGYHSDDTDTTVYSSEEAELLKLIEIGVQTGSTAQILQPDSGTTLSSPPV
T4 sequence (Q9UIK4 whole entry): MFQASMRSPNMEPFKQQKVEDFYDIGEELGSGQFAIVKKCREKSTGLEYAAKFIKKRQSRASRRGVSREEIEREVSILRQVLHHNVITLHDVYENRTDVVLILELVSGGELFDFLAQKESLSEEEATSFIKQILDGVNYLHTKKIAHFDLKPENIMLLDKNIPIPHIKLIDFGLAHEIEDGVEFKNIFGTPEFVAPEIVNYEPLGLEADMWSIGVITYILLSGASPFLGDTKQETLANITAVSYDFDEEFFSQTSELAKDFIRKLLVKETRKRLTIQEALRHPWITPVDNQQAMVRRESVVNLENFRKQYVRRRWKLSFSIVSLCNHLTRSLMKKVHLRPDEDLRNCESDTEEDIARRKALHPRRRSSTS
T6 sequence (P10721 26-976 V559D/T670I): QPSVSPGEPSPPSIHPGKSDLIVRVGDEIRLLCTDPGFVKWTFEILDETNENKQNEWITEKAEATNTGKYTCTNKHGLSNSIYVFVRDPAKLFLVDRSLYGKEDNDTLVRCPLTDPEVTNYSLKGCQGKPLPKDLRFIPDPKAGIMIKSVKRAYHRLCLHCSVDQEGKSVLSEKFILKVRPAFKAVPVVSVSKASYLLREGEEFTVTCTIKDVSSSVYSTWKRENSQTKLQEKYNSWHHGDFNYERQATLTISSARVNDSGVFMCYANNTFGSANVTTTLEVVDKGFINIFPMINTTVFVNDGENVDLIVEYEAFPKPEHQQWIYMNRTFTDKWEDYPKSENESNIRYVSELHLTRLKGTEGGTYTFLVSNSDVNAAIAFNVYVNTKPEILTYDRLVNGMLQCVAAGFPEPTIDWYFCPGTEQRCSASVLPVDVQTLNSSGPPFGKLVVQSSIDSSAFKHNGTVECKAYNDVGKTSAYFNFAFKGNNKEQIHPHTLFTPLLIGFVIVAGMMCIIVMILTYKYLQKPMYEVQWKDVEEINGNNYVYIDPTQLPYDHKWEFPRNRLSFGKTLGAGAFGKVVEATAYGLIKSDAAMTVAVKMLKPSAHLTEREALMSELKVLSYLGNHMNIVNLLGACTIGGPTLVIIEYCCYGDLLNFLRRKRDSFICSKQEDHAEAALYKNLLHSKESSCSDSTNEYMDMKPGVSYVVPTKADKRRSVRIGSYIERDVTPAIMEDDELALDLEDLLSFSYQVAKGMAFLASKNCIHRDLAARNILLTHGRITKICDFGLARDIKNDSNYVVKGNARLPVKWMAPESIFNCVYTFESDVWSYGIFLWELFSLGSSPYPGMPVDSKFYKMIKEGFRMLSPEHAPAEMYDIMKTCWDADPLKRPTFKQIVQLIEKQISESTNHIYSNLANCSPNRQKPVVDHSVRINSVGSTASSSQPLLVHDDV

SMILES | % Enzyme Activity (relative to DMSO controls) (382 unique human kinases [1]) [%] | remaining activity at 10 µM (382 unique human kinases [1]) [%] | % Enzyme Activity (relative to DMSO controls) (382 unique human kinases [2]) [%] | remaining activity at 10 µM (382 unique human kinases [2]) [%] | % Enzyme Activity (relative to DMSO controls) (382 unique human kinases [3]) [%] | remaining activity at 10 µM (382 unique human kinases [3]) [%] | % Enzyme Activity (relative to DMSO controls) (382 unique human kinases [4]) [%] | remaining activity at 10 µM (382 unique human kinases [4]) [%] | remaining activity at 10 µM (382 unique human kinases [5]; read-out: % Enzyme Activity (relative to DMSO controls), ARAF) [%] | remaining activity at 10 µM (382 unique human kinases [6]) [%] | remaining activity at 10 µM (382 unique human kinases [7]) [%] | remaining activity at 10 µM (382 unique human kinases [8]) [%] | remaining activity at 10 µM (382 unique human kinases [9]) [%] | % Enzyme Activity (relative to DMSO controls) (382 unique human kinases [5]; ARAF) [%] | remaining activity at 10 µM (382 unique human kinases [5]; ARAF, read-out: % Enzyme Activity (relative to DMSO controls)) [%] | % Enzyme Activity (relative to DMSO controls) (382 unique human kinases [6]) [%] | % Enzyme Activity (relative to DMSO controls) (382 unique human kinases [7]) [%] | % Enzyme Activity (relative to DMSO controls) (382 unique human kinases [8]) [%] | % Enzyme Activity (relative to DMSO controls) (382 unique human kinases [9]) [%]
CCNC(=O)c1noc(-c2cc(C(C)C)c(O)cc2O)c1-c1ccc(CN2CCOCC2)cc1 [Luminespib] | 63.67 | 64.5 | 93.87 | 94.8 | 89.25 | 90.6 | 94.93 | 95.4 | – | – | – | – | – | – | – | – | – | – | –
CC(C)c1cc(-c2n[nH]c(=O)n2-c2ccc3c(ccn3C)c2)c(O)cc1O [Ganetespib (STA9090)] | – | – | – | – | – | – | – | – | 158 | 67.9 | 85.7 | 88.7 | 69.6 | – | – | – | – | – | –
CCNC(=O)c1noc(-c2cc(C(C)C)c(O)cc2O)c1-c1ccc(CN2CCOCC2)cc1 [Luminespib (AUY-922)] | – | – | – | – | – | – | – | – | – | 91.5 | 95.4 | 101 | 97.2 | 107.23 | 107 | 91.06 | 95.04 | 99.89 | 94.59
CC(C)c1cc(-c2n[nH]c(=O)n2-c2ccc3c(ccn3C)c2)c(O)cc1O [Ganetespib] | – | 18.1 | – | 56.7 | – | 51.1 | – | 96.6 | – | – | – | – | – | – | – | – | – | – | –
